According to US20160022694A1, “A Method of Improving the Efficiency of Beef Production from Bovine Animals” (INTERVET INTERNATIONAL B.V., priority 2013, published 2016):
Marks after values point to notes of the source that are not given here.

Experiments:
[1] = tested on: finishing steers; experiment: Secondary (carcass) variables after Zilmax component or continuous feeding; type: in vivo, cattle; conditions: for Marbling Score: 400-699 = choice
Excerpt: A multi-center, randomized complete block design was used. Four study sites enrolled 800 to 1000 head of cattle each. Cattle were randomized to 10 blocks of 80 to 100 head based on body weight, then penned in groups of 16 to 20 head per pen. Finishing steers that were visually estimated to be approximately 58 days from finish were used in the studies. Each site enrolled 800 to 1000 head of cattle. Cattle were randomized to 10 blocks of 80 to 100 head and, within block, to treatment group based on body weight. Study pens consisted of 16 to 20 head per pen. A component feeding method was tested in the studies by thoroughly mixing the daily zilpaterol dose in the first feeding of the Type C feed prior to delivery to the animal for Groups 2, 3 and 4. […] The daily component feed amount (i.e., the first feeding each day of the Type C feed) was set at approximately 10 lb of feed dry matter (DM) per head to simulate commercial practice for component feeding. Therefore, all study pens were fed approximately 10 lb of DM per head in the first feeding of the day. Control steers were fed the Type C feed that contained no Zilmax. The component feeding treatment groups were fed the Type C feed that contained 60, 75, or 90 mg/head/day. All cattle in the control and three component feeding treatments were fed the non-medicated Type C complete feed (i.e., without Zilmax®) in a second feeding each day. Steers in the 6.8 g/ton Zilmax® treatment group received the Type C complete feed containing this level of Zilmax® in both feedings each day during the 20-day Zilmax® feeding period. DMI was calculated for the two study periods (start of the acclimation period or Day 0 to the end of the withdrawal period). The following carcass data were collected or calculated: marbling score, USDA quality grade or equivalent, hot carcass weight, ribeye area, backfat thickness (preliminary yield grade and adjusted preliminary yield grade), and USDA yield grade or equivalent. Dressing percent was calculated. Variables continuous in nature were subjected to the analysis described for the primary outcome variables. Outcomes evaluated included: initial body weight, final body weight, weight gain (Day 0 to final date), ADG (acclimation period, initial date to final date), ADG (shrunk, Day 0 to final date and initial date to final date), DMI (acclimation, initial date to final date), as fed intake (Zilmax® period), carcass gain (Day 0 to final date), dressing percent, hot carcass weight, marbling score, fat depth, ribeye area, percent KPH and calculated yield grade. The following carcass data were collected or calculated: marbling score, USDA quality grade or equivalent, hot carcass weight, ribeye area, backfat thickness, calculated yield grade, kidney-pelvic-heart fat percentage, and USDA yield grade or equivalent. The Canadian study site CBGA quality and yield grades were converted to USDA equivalents prior to analysis. Dressing percent was calculated.

[2] = tested on: finishing steers; experiment: Feedlot growth performance study: component feeding vs continuous feeding of Zilmax; type: in vivo, cattle; conditions: for Final body weight: 20 days, LS mean
Excerpt: A multi-center, randomized complete block design was used. Four study sites enrolled 800 to 1000 head of cattle each. Cattle were randomized to 10 blocks of 80 to 100 head based on body weight, then penned in groups of 16 to 20 head per pen. Finishing steers that were visually estimated to be approximately 58 days from finish were used in the studies. Each site enrolled 800 to 1000 head of cattle. Cattle were randomized to 10 blocks of 80 to 100 head and, within block, to treatment group based on body weight. Study pens consisted of 16 to 20 head per pen. The study was broken into three periods: acclimation, Zilmax® treatment and withdrawal. Between study sites, the number of acclimation days was variable but the Zilmax feeding period was 20 days at all study sites. The withdrawal period ranged from 3 to 5 days across the sites. More than one start time was allowed to accommodate enrollment of the study animals. If blocks were initiated at different times, blocks may have been acclimated for different lengths of time. The minimum length of the acclimation period was 31 days. All animals were permitted ad libitum feed consumption according to standard study site procedure. Feed delivery occurred twice daily. Daily feed issue was recorded on a per pen basis from the start of the acclimation period and until final weights were measured before shipment for harvest. Feed batching and delivery were documented. A component feeding method was tested in the studies by thoroughly mixing the daily zilpaterol dose in the first feeding of the Type C feed prior to delivery to the animal for Groups 2, 3 and 4. […] The daily component feed amount (i.e., the first feeding each day of the Type C feed) was set at approximately 10 lb of feed dry matter (DM) per head to simulate commercial practice for component feeding. Therefore, all study pens were fed approximately 10 lb of DM per head in the first feeding of the day. Control steers were fed the Type C feed that contained no Zilmax. The component feeding treatment groups were fed the Type C feed that contained 60, 75, or 90 mg/head/day. All cattle in the control and three component feeding treatments were fed the non-medicated Type C complete feed (i.e., without Zilmax®) in a second feeding each day. Steers in the 6.8 g/ton Zilmax® treatment group received the Type C complete feed containing this level of Zilmax® in both feedings each day during the 20-day Zilmax® feeding period. Individual animal weights were measured prior to the start of the Acclimation period for use in randomization of animals to treatment groups and pens. The Acclimation period was used to stabilize feed intake and behavioral aspects of the newly sorted pen groups of cattle prior to feeding Zilmax®. Individual weights were measured and unconsumed feed was removed from the feed bunks and weighed on the day of initiation of Zilmax® feeding. After a 20-day Zilmax® feeding period, unconsumed feed was removed from the feed bunks, weighed, and discarded. All animals in the five treatment groups were fed a non-medicated feed (i.e., without Zilmax®) for a minimum 3 day withdrawal period prior to harvest. Unconsumed feed remaining in the feed bunks was removed and weighed on the day of final body weight measurement. Cattle were handled throughout the study using procedures which were typical of commercial practices. Cattle were exposed to ambient weather conditions during the studies. Feed was not restricted prior to weighing or harvest. The primary variables in this study were average daily body weight gain (ADG) and feed efficiency (FE) calculated for the Zilmax® feeding period of the study (Day 0 through end of withdrawal period) and for the entire study (start of the acclimation period to end of withdrawal period). ADG was calculated as a pen average from the ADG of individual animals within the pen using the equation: ADG=(final body weight−Day 0 body weight)/(number of days between the body weight measurements). […]

[3] = Acclimation to End of Withdrawal (entire study)
[4] = Entire Study (55 to 82 days), component feeding 60 mg/hd/day
[5] = Entire Study (55 to 82 days), component feeding 75 mg/hd/day
[6] = Entire Study (55 to 82 days), component feeding 90 mg/hd/day
[7] = Entire Study (55 to 82 days), continuous 6.8 g/ton
[8] = Zilmax and Withdrawal Period, all treated groups
[9] = Zilmax and Withdrawal Periods (23 to 25 days), component feeding 60 mg/hd/day
[10] = Zilmax and Withdrawal Periods (23 to 25 days), component feeding 75 mg/hd/day
[11] = Zilmax and Withdrawal Periods (23 to 25 days), component feeding 90 mg/hd/day
[12] = Zilmax and Withdrawal Periods (23 to 25 days), continuous 6.8 g/ton

## CC(C)NC1CCn2c(=O)[nH]c3cccc(c32)C1O (centres unmarked) [Zilmax, 4,5,6,7-tetrahydro-7-hydroxy-6-(isopropylamino) imidazo[4,5,1-jk]-[1]benzazepin-2(1H)-one]
[1]; P>0.19
  Backfat thickness, among the treatment groups: no significant differences
  Kidney-pelvic-heart fat percentage, among the treatment groups: no significant differences
  USDA quality grade, among the treatment groups: no significant differences
[1]; all treated groups
  Calculated yield grade, Zilmax treated groups compared to the control group: significantly lower
  Dressing percentage, Zilmax treated groups compared to the control group: significantly higher
  Hot carcass weight, Zilmax treated groups compared to the control group: significantly higher
  Marbling score, Zilmax treated groups compared to the control group: significantly lower
  Rib eye area, Zilmax treated groups compared to the control group: significantly higher
  USDA yield grade score, Zilmax treated groups compared to the control group: significantly lower
[1]; bovine, in vivo
  Calculated yield grade, component feeding groups vs continuous feeding group: no differences
  Dressing percentage, component feeding groups vs continuous feeding group: no differences
  Hot carcass weight, component feeding groups vs continuous feeding group: no differences
  Marbling score, component feeding groups vs continuous feeding group: no differences
  Rib eye area, component feeding groups vs continuous feeding group: no differences
  USDA yield grade score, component feeding groups vs continuous feeding group: no differences
[1]; component feeding 60 mg/hd/day
  Backfat Thickness: 0.49 inches
  Calculated Yield Grade: 2.81*
  Dressing % (using final body weight shrunk 4%): 63.89* %
  Hot Carcass Weight: 904* lb/head
  Kidney-Pelvic-Heart fat: 2.27%
  Ribeye Area: 15.14* sq. inches
  USDA Yield Grade: 2.19*
  Marbling Score: 453*
[1]; component feeding 75 mg/hd/day
  Backfat Thickness: 0.48 inches
  Calculated Yield Grade: 2.82*
  Dressing % (using final body weight shrunk 4%): 64.00* %
  Hot Carcass Weight: 902* lb/head
  Kidney-Pelvic-Heart fat: 2.26%
  Ribeye Area: 15.07* sq. inches
  USDA Yield Grade: 2.19*
  Marbling Score: 460*
[1]; component feeding 90 mg/hd/day
  Backfat Thickness: 0.49 inches
  Calculated Yield Grade: 2.79*
  Dressing % (using final body weight shrunk 4%): 64.06* %
  Hot Carcass Weight: 905* lb/head
  Kidney-Pelvic-Heart fat: 2.26%
  Ribeye Area: 15.20* sq. inches
  USDA Yield Grade: 2.18*
  Marbling Score: 456*
[1]; continuous 6.8 g/ton
  Backfat Thickness: 0.49 inches
  Calculated Yield Grade: 2.83*
  Dressing % (using final body weight shrunk 4%): 64.08* %
  Hot Carcass Weight: 908* lb/head
  Kidney-Pelvic-Heart fat: 2.27%
  Ribeye Area: 15.14* sq. inches
  USDA Yield Grade: 2.19*
  Marbling Score: 457*
[2]; [3]
  ADG, component feeding groups vs continuous feeding group: No differences
  ADG, treated groups compared to the control group: significantly higher
  FE, component feeding groups vs continuous feeding group: No differences
  FE, treated groups compared to the control group: significantly lower
[2]; Acclimation to End of Withdrawal (entire study), P>0.51
  DMI, among the treatment groups: No differences
[2]; [4]
  ADG: 4.14* lb/head/day
  DMI: 22.71 lb/head/day
  FE (Feed / Gain): 5.64*
[2]; [5]
  ADG: 4.12* lb/head/day
  DMI: 22.75 lb/head/day
  FE (Feed / Gain): 5.65*
[2]; [6]
  ADG: 4.13* lb/head/day
  DMI: 22.65 lb/head/day
  FE (Feed / Gain): 5.62*
[2]; [7]
  ADG: 4.19* lb/head/day
  DMI: 22.93 lb/head/day
  FE (Feed / Gain): 5.64*
[2]; Zilmax and Withdrawal Period
  ADG, component feeding groups vs continuous feeding group: No differences
  DMI, component feeding groups compared to the control group: significantly lower
  DMI, continuous feeding group vs control group: no significant difference
  FE, component feeding groups vs continuous feeding group: No differences
[2]; [8]
  ADG, treated groups compared to the control group: significantly higher
  FE, treated groups compared to the control group: significantly lower
[2]; [9]
  ADG: 4.13*^(c) lb/head/day
  DMI: 22.57* lb/head/day
  FE (Feed / Gain): 5.89*
[2]; [10]
  ADG: 3.99* lb/head/day
  DMI: 22.70* lb/head/day
  FE (Feed / Gain): 5.99*
[2]; [11]
  ADG: 3.97* lb/head/day
  DMI: 22.39* lb/head/day
  FE (Feed / Gain): 6.10*
[2]; [12]
  ADG: 4.23* lb/head/day
  DMI: 22.87 lb/head/day
  FE (Feed / Gain): 5.96*
[2]; component feeding 60 mg/hd/day
  Final body weight: 1463 lb/head
[2]; component feeding 75 mg/hd/day
  Final body weight: 1459 lb/head
[2]; component feeding 90 mg/hd/day
  Final body weight: 1461 lb/head
[2]; fed continuously 6.8 g/ton (90% DMB)
  Final body weight: 1467 lb/head
